Measured values taken from ChEMBL document CHEMBL1146155, “NC-100717: a versatile RGD peptide scaffold for angiogenesis imaging” (Bioorg Med Chem Lett, 2006).
*1 amine or outer side, *2 acyl side, *3 side chain or, on linkers, in order; H or OH if unused. Where a SMILES comes first, the peptide text is derived from it. Bridges are numbered along the chain shown (N, C = ends). Side-chain parts run from the residue outwards. [ ]: non-standard residue; d: D form. The star is where a group is joined. X1 = O=C(COCC(=O)*)NCCOCCOCCOCCOCCOCCNC(=O)CO/N=C/c1ccc(F)cc1; DOTA = O=C(O)CN1CCN(CC(=O)O)CCN(CC(=O)*)CCN(CC(=O)O)CC1; Gly(2R-SCH2CO) = O=C([C@H](N[*:1])SCC(=O)[*:3])[*:2]; X3 = C/C(=N\O)C(C)(C)NCCC(CCNC(C)(C)/C(C)=N/O)CCN*; Gly(αR-SH) = O=C([C@H](N[*:1])S[*:3])[*:2]; Glutaryl = O=C(CCCC(=O)[*:2])[*:1]; X2 = NC(=O)COCC(=O)NCCOCCOCCOCCN*

Test: Displacement of [125I]echistatin from AlphaVbeta3/AlphaVbeta5 integrin receptor in EAHy 926 cells
Format: cell-based, Homo sapiens

Structure (SMILES)	Ki
C/C(=N\O)C(C)(C)NCCC(CCNC(=O)CCCC(=O)NCCCC[C@@H]1NC(=O)CS[C@H](C(=O)NCCOCCOCCOCCNC(=O)COCC(N)=O)NC(=O)[C@H](Cc2ccccc2)NC(=O)[C@@H]2NC(=O)[C@H](CC(=O)O)NC(=O)CNC(=O)[C@H](CCCNC(=N)N)NC(=O)[C@H](NC1=O)SS2)CCNC(C)(C)/C(C)=N/O (K([Glutaryl-X3])[Gly(αR-SH)]RGD[Gly(αR-SH)]F[Gly(2R-SCH2CO)]-X2; disulfide 2-6; lactam N-8)	3.1 nM
N=C(N)NCCC[C@@H]1NC(=O)[C@@H]2NC(=O)[C@H](CCCCN)NC(=O)CS[C@H](C(=O)NCCOCCOCCOCCNC(=O)COCC(N)=O)NC(=O)[C@H](Cc3ccccc3)NC(=O)[C@H](NC(=O)[C@H](CC(=O)O)NC(=O)CNC1=O)SS2 (K[Gly(αR-SH)]RGD[Gly(αR-SH)]F[Gly(2R-SCH2CO)]-X2; disulfide 2-6; lactam N-8)	6.8 nM
CC[N+]1=C(/C=C/C=C/C=C2/N(CCCCCC(=O)NCCCC[C@@H]3NC(=O)CS[C@H](C(=O)NCCOCCOCCOCCNC(=O)COCC(N)=O)NC(=O)[C@H](Cc4ccccc4)NC(=O)[C@@H]4NC(=O)[C@H](CC(=O)O)NC(=O)CNC(=O)[C@H](CCCNC(=N)N)NC(=O)[C@H](NC3=O)SS4)c3ccc4c(S(=O)(=O)O)cc(S(=O)(=O)O)cc4c3C2(C)C)C(C)(C)c2c1ccc1c(S(=O)(=O)[O-])cc(S(=O)(=O)O)cc21	0.75 nM
N=C(N)NCCC[C@@H]1NC(=O)[C@@H]2NC(=O)[C@H](CCCCNC(=O)CN3CCN(CC(=O)O)CCN(CC(=O)O)CCN(CC(=O)O)CC3)NC(=O)CS[C@H](C(=O)NCCOCCOCCOCCNC(=O)COCC(N)=O)NC(=O)[C@H](Cc3ccccc3)NC(=O)[C@H](NC(=O)[C@H](CC(=O)O)NC(=O)CNC1=O)SS2 (K(DOTA)[Gly(αR-SH)]RGD[Gly(αR-SH)]F[Gly(2R-SCH2CO)]-X2; disulfide 2-6; lactam N-8)	3.2 nM
N=C(N)NCCC[C@@H]1NC(=O)[C@@H]2NC(=O)[C@H](CCCCNC(=O)COCC(=O)NCCOCCOCCOCCOCCOCCNC(=O)CO/N=C/c3ccc(F)cc3)NC(=O)CS[C@H](C(=O)NCCOCCOCCOCCNC(=O)COCC(N)=O)NC(=O)[C@H](Cc3ccccc3)NC(=O)[C@H](NC(=O)[C@H](CC(=O)O)NC(=O)CNC1=O)SS2 (K(X1)[Gly(αR-SH)]RGD[Gly(αR-SH)]F[Gly(2R-SCH2CO)]-X2; disulfide 2-6; lactam N-8)	8.2 nM
